Laboratory results from BindingDB's records for doi:10.1038/sj.bjp.0706048 (University of Nottingham, 2005).
Counter-ions that a name gives are not always drawn.

How the values were obtained:
[1] = target: Beta-3 adrenergic receptor (Homo sapiens, UniProt P13945); test: 3H-CGP 12177 Whole Cell Binding Assay
From the text: (§1) The whole cell-binding studies were undertaken in CHO cell lines stably expressing each beta-adrenoceptor subtype.

[2] = target: Beta-1 adrenergic receptor (Homo sapiens, UniProt P08588); test: 3H-CGP 12177 Whole Cell Binding Assay; settings: pH 7.4; 37 °C
Beta-1 adrenergic receptor, sequence (P08588 whole entry): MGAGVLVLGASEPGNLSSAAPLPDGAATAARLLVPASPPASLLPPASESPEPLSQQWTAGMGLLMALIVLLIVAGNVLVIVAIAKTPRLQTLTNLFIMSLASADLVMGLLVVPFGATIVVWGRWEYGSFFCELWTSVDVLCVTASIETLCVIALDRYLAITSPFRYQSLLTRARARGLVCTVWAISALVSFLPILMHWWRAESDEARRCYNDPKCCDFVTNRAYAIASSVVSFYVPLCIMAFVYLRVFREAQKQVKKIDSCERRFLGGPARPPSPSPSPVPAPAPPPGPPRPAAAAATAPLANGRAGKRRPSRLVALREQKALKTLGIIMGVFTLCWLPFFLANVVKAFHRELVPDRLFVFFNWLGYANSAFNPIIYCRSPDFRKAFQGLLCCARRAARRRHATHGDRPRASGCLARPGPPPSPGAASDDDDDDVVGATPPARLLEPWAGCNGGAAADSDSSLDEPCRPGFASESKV
From the text: as §1

Beta-3 adrenergic receptor, sequence (P13945 whole entry): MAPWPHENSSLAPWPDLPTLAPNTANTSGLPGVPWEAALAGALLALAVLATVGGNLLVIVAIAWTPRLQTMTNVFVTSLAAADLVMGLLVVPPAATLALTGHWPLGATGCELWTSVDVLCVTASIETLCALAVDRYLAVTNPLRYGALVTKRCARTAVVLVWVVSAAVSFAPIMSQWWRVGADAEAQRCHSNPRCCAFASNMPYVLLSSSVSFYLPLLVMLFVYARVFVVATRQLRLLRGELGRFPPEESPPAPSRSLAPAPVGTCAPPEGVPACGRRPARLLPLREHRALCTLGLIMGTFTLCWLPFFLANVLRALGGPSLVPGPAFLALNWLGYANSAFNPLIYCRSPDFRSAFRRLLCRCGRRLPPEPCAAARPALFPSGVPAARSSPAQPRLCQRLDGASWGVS

Compound	Kd [1] [nM]	Kd [2] [nM]
CC(C)(C)NC[C@H](O)COc1nsnc1N1CCOCC1 (racemic) [tert-butyl(2-hydroxy-3-{[4-(morpholin-4-yl)-1,2,5-thiadiazol-3-yl]oxy}propyl)amine]	158	–
CC(C)NCC(O)c1ccc2ccccc2c1 (stereo unspecified) [1-(naphthalen-2-yl)-2-(propan-2-ylamino)ethan-1-ol]	1290	363
O=C(O)COc1ccc(OCCNC[C@@H](O)COc2ccccc2)cc1 [2-[4-(2-{[(2R)-2-hydroxy-3-phenoxypropyl]amino}ethoxy)phenoxy]acetic acid]	234	–
CC(C)(C)NCC(O)COc1cccc2[nH]c(=O)[nH]c12 (stereo unspecified) [4-[3-(tert-butylamino)-2-hydroxypropoxy]-2,3-dihydro-1H-1,3-benzodiazol-2-one hydrochloride]	102	–
CC(C)(C)NCC(O)COc1cccc2c1C[C@H](O)[C@H](O)C2 (stereo partly specified) [Corgard]	661	59
CC(C)NC[C@H](O)COc1ccc(CCOCC2CC2)cc1 [[(2S)-3-{4-[2-(cyclopropylmethoxy)ethyl]phenoxy}-2-hydroxypropyl](propan-2-yl)amine]	1070	–
OCc1cc(C(O)CNCCCCCCOCCCCc2ccccc2)ccc1O (stereo unspecified) [salmeterol xinafoate]	1860	–
Cc1ccc(Cl)c(OCC(O)CNC(C)(C)C)c1 (stereo unspecified) [tert-butyl[3-(2-chloro-5-methylphenoxy)-2-hydroxypropyl]amine]	91	3.1
